# Like-named read-outs stand apart in the source and are kept apart here.
# Key:
# nSMase2 [1] = details: cited from earlier work
# [2] = cited from earlier work
# [3] = cited from earlier work; remark: listed apart in the source
# nSMase2 [4] = test system: nSMase2; set-up: method as in PMID 28377412; details: co-injection with IL-1β; cited from earlier work
# human nSMase2 = molecular target: T1, human nSMase2 (Homo sapiens, UniProt Q9NY59); assay: biochemical
# T1 sequence (Q9NY59 1-655): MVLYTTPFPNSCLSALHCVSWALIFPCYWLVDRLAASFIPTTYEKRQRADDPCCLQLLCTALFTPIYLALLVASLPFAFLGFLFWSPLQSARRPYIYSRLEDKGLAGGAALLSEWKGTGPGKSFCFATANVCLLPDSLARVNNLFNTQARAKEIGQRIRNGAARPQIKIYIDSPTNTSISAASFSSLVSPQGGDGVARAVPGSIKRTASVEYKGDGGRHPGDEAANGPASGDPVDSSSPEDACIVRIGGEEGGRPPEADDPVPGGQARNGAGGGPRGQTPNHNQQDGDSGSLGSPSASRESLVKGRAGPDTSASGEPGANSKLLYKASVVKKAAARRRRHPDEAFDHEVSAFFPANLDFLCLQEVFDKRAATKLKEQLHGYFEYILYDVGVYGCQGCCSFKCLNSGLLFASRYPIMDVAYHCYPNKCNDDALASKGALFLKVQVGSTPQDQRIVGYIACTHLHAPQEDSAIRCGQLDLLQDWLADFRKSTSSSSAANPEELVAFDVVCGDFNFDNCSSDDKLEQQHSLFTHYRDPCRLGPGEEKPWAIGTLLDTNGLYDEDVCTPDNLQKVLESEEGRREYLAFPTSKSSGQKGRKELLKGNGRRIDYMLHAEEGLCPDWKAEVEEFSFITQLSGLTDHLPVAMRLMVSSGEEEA
# primary astrocytes = assay: Inhibition of EV release from primary astrocytes (FBS withdrawal, nanoparticle tracking); type: cell-based, rat; details: 2 h treatment, dose range of concentrations
# Procedure: (§1) Independent laboratories have shown that pharmacological and genetic inhibition of nSMase2 blocks EV secretion from glial cells. […] Two hours after treatment, EVs were isolated from the media and quantified by nanoparticle tracking analysis. […] Cells were fixed and immunofluorescence labeling for GFAP was performed.
# (§2) Media was collected after 2 h incubation and centrifuged at 2700 × g for 15 min at 4 °C. Supernatant was collected and the number of extracellular vesicles (EVs) was quantified using ZetaView Nanoparticle Tracker. The mean concentration of EVs/mL (±SEM) was calculated from 4 replicate experiments. […] Astrocytes grown in complete medium were used as no treatment control. Cells were fixed and stained with anti-GFAP antibody (1:500, Sigma). Fluorescence intensity was measured using Image J. (C) Quantitation of fluorescence in (B). Bar graph represents background corrected mean fluorescence intensity measured from 100 astrocytes per condition. Error bars represent standard error of mean. One-way ANOVA followed by Tukey’s posthoc test was performed.
# Potential inhibition of test compounds on EV release from primary astrocytes was carried out as previously described (Dickens et al., 2017). Briefly, rat primary astrocytes were seeded onto 6-well plates at a density of 20,000 cells/well. Twenty-four hours after seeding, astrocytes were washed with PBS and the medium changed to media without FBS. Absence of FBS mimics a trophic factor withdrawal stimulus causing EVs to be released from astrocytes via an nSMase2-dependent pathway. […] The supernatant was collected and the number of EVs quantified using ZetaView Nanoparticle Tracker (Particle Metrix GmBH, Meerbusch, Germany) and the corresponding ZetaVeiw software (8.03.04.01). Nanosphere size standard 100 nm (Thermo Scientific) was used to calibrate the instrument prior to sample readings. […] For each sample 1 mL of the supernatant was injected into the sample-carrier cell and the particle count measured at 5 positions, with 2 cycles of reading per position. […] Mean concentration of EVs/mL (±SEM) was calculated from 4 replicates.
# Rat primary astrocytes = assay: Astrocyte activation, GFAP immunofluorescence (+/-) serum deprivation; type: cell-based; details: 10 μM, 2 h
# Procedure: as §1, §2
# GFAP-GFP mice = assay: Striatal IL-1β brain inflammation model: GFP-labeled astrocyte-derived EVs in plasma; type: in vivo, mouse; details: 10 mg/kg IP 0.5 h before IL-1β, 2 h post IL-1β
# Procedure: As we have previously shown[11],[18], striatal injection of IL-1β in mice expressing GFP-GFAP in astroglia triggers a release of GFP-labelled EVs that rapidly enter into plasma, resulting in cytokine upregulation in liver and peripheral immune cell migration into brain[11]. […] There were two groups of mice: the first group was sacrificed 2 h after IL-1β administration by heart puncture, and GFP-labeled circulating EVs were measured with liver cytokines. […] Counting of astrocyte-released EV (GFP+) from blood and liver cytokine analysis was conducted by single injection of DPTIP. Although release of EVs from astrocytes can be initiated immediately after intracranial injection of IL-1β, infiltration of neutrophils in brain parenchyma occurred 12h-24h after the IL-1β injection. […] Western analysis using the isolated exosomal fraction confirmed the presence of CD63 (transmembrane protein), TSG101 (cytosolic protein) and Flotilin-1 (lipid raft associated protein), commonly used EV markers[19],[20]. The GFP signal was an indication that these EVs originated in brain[11] while lack of mitofilin and α-actinin signals indicated the vesicles were not of mitochondrial[21] or cytoskeletal[22] origin respectively (Fig. 6B).
# Compounds were given 0.5 h before IL-1β dosing. One group of mice was sacrificed 2 h after IL-1β administration to determine effects of the various treatments on extracellular vesicles (EVs) releases from brain and liver cytokine analysis. […] (C) Liver cytokine levels under different treatments as measured by qRT-PCR of RNA isolated from fresh frozen liver tissue. Samples were analyzed in triplicate. **p < 0.01 and *p < 0.05 compared to saline control; ^##p < 0.01 and ^#p < 0.05 compared to IL1-β group. (D) Neutrophil levels in brain as measured by immunohistochemistry using coronal brain sections and Ly6b antibody. (E) Quantitation of (D); **p < 0.01 compared to saline control; ^##p < 0.01 compared to IL1-β group. […]
compound,measurement,setting,value
O=c1[nH]c(=S)[nH]c(-c2ccccc2)c1Cc1c(O)ccc2ccccc12 [Cambinol],IC50,nSMase2 [1],[…]
same,metabolic stability,[2],metabolically unstable
same,in vivo pharmacokinetic profile,[3],poor in vivo pharmacokinetic profile
COc1ccc(S(=O)(=O)N(C(=O)C(C)C)c2ccc3oc(=O)sc3c2)cc1 [MLS000521532],IC50,human nSMase2,10 µM
COc1ccc(NC2CCCN(C(=O)CCc3ccccc3F)C2)cc1 (centres unmarked) [MLS001002546],IC50,human nSMase2,10 µM
COc1cc(O)c(C(=O)O)c(-c2cc(O)c(O)cc2C)c1 [altenusin],effect on neutrophil infiltration into brain parenchyma,nSMase2 [4],suppress neutrophil infiltration
COc1cc(OC)cc(-c2nc(-c3cccs3)c(-c3ccccc3)[nH]2)c1 [des-hydroxyl analog],effect on EV release from primary astrocytes,primary astrocytes; listed as des hydroxyl inactive analog of DPTIP,did not inhibit EV release
same,effect on EV release from primary astrocytes,primary astrocytes; listed as inactive analog,no effect on EV release
same,effect on GFAP levels without serum starvation,Rat primary astrocytes; no serum starvation,did not change GFAP levels
same,effect on astrocyte activation (GFAP) in response to serum starvation,Rat primary astrocytes; with serum deprivation,failed to prevent astrocyte activation
same,effect on IL-1β-induced EV release,GFAP-GFP mice,no difference
same,effect on IL-1β-induced EV release,GFAP-GFP mice; listed as inactive analog,no statistically significant effect
